What was measured:
α1-adrenergic receptors = assay: α1-adrenoceptor radioligand binding assay ([3H]-prazosin, rat cortex); settings: rat cortex tissue, mean ± SEM
Experimental: (§1) The α1- and α2-adrenoceptor radioligand binding assays were performed on the rat cerebral cortex using previously described methods. […] The brains were homogenized using the ULTRA-TURRAX homogenizer in 10 mL of an ice-cold 50 mM Tris-HCl buffer (pH 7.6). The homogenates were centrifuged at 20,000× g for 20 min (0–4 °C). Subsequently, the cell pellet was resuspended in the Tris–HCl buffer and centrifuged again. Radioligand binding assays were carried out in plates (MultiScreen/Millipore). The final incubation mixture, with a volume of 300 μL, consisted of 240 μL of the tissue suspension, 30 μL of the radioligand solution, and 30 μL of the buffer containing 7–8 concentrations of the studied compounds. In order to measure the unspecific binding, 10 μM phentolamine (for [^3H]-prazosin) or 10 μM clonidine (for [^3H]-clonidine) were utilized. The incubation was completed by rapid filtration through Whatman GF/C filters using a vacuum manifold (Millipore). The filters were then washed twice with the assay buffer and placed in scintillation vials with a liquid scintillation cocktail. Radioactivity was measured in a WALLAC 1409 DSA liquid scintillation counter (Perkin Elmer, USA). All the assays were performed in duplicates, and the inhibitory constants (Ki) were calculated.

[1] = system: adrenaline-induced arrhythmia model in rats; assay: Therapeutic antiarrhythmic activity in adrenaline-induced arrhythmia; settings: 1 mg/kg iv immediately after adrenaline 20 µg/kg; number of animals with event
Experimental: The experiments were carried out according to the method described by Szekeres and Papp [71]. The heart rhythm disturbances, such as extrasystoles, conduction blocks, and bradycardia, were induced by iv injection of adrenaline (20 µg/kg) to anesthetized rats (thiopental, 75 mg/kg, ip). […] The Aspel ASCARD apparatus (standard II lead, with a tape of speed 50 mm/s and voltage calibration of 1 mV = 1 cm) was used for the ECG measurements. The ECG was recorded during the first 2 min and in the 5th, 10th, and 15th min after the adrenaline injection (Figure 3B). The lack or decreased amount of extrasystoles, atrioventricular blocks, and bradycardia in the ECG recordings compared to the control group was the criterion of antiarrhythmic activity [72].
Automated ECG waveform analysis was evaluated as described earlier [55], using Eleven Maze software version 0.1 from Eleven Products Sp. z o.o. […] The software, under expert supervision, recognized and classified the heart rhythm irregularities. It also calculated PQ, QRS, QTc, and rate parameters.

[2] = system: aconitine-induced arrhythmia model in rats; assay: Prophylactic antiarrhythmic activity in aconitine-induced arrhythmia; type: in vivo, rat; settings: 5 mg/kg iv 15 min before aconitine 20 μg/kg; number of animals with event
Experimental: (§2) The animals were anesthetized with thiopental (75 mg/kg ip). Depending on the model, either adrenaline, aconitine, or calcium chloride was used as an arrhythmogen. Adrenaline and aconitine were administered iv at a dose of 20 µg/kg, whereas calcium chloride was administered at a dose of 140 mg/kg to induce heart rhythm disturbances. The tested compounds were injected iv 15 min before the arrhythmogen. Aspel ASCARD apparatus (standard II lead, with the tape speed 50 mm/s and voltage calibration 1 mV = 1 cm) was used for ECG measurements. […] The ED50 was calculated using the method of Litchfield and Wilcoxon.

[3] = system: calcium chloride-induced arrhythmia model in rats; assay: Prophylactic antiarrhythmic activity in calcium chloride-induced arrhythmia; type: in vivo, rat; settings: 5 mg/kg iv 15 min before calcium chloride 140 mg/kg; number of animals with event
Experimental: as §2

[4] = system: pressor response to methoxamine in rats; assay: Influence on blood vasopressor response to methoxamine in rats; type: in vivo, rat; settings: 5 mg/kg iv, methoxamine 150 μg/kg before and 5 min after compound
Experimental: The experiment was performed to establish the effect of the studied derivatives on the pressor response to methoxamine (150 µg/kg, iv), according to the methods described previously. Normotensive Wistar rats were anesthetized with thiopental (75 mg/kg ip). The right carotid artery was cannulated with a polyethylene tube filled with heparin solution using a Datamax apparatus (Columbus Instruments, Columbus, OH, USA). After a 15-min stabilization period, the pressor response to methoxamine before (control) and 5 min after the administration of the tested compounds was measured (Figure 4B). The tested compounds were administered at the lowest hypotensive dose.

normal ECG in rats = assay: Effect on a normal electrocardiogram in rats; type: in vivo, rat; settings: 5 mg/kg iv; for HR—heart rate / PQ interval / QRS complex / QTc (Bazzett's formula): mean ± SD; for PQ interval / QRS complex / QTc (Bazzett's formula): in ms (unit assumed)
Experimental: The procedure was performed to exclude the negative effects of the tested compounds on the normal ECG, according to the method described earlier. […] Firstly, animals were anesthetized with thiopental (75 mg/kg ip). […] The influence on PQ, QTc interval, QRS complex, and heart rate was evaluated. The Bazzett’s formula: QTc = QT/√RR was used to calculate QTc. All the studied compounds were administered at a dose of 5 mg/kg.

[5] = system: adrenaline-induced arrhythmia model in rats; assay: Prophylactic antiarrhythmic activity in adrenaline-induced arrhythmia; type: in vivo, rat; settings: for Blocks / Bradycardia / Extrasystoles / Mortality: number of animals with event
Experimental: as §2

α2-adrenergic receptors = assay: α2-adrenoceptor radioligand binding assay ([3H]-clonidine, rat cortex); settings: rat cortex tissue, mean ± SEM, n.a. = did not bind at 10^−5 M
Experimental: as §1

[6] = 0 min (prior to administration)
[7] = 0.02 mg/kg iv 15 min before adrenaline 20 μg/kg
[8] = 0.05 mg/kg iv 15 min before adrenaline 20 μg/kg
[9] = 0.1 mg/kg iv 15 min before adrenaline 20 μg/kg

With `Cc1ccc(N(CC2=NCCN2)c2cccc(O)c2)cc1` [Phentolamine, phentolamine, reference compound] the “Adrenergic Receptors—pKi α1” value (α1-adrenergic receptors) was 8.05 ± 0.01.
With `COc1ccccc1N1CCN(CCCCOc2ccccc2C(N)=O)CC1.Cl` [JJGW07, 2-{4-[4-(2-metoxyphenyl)piperazin-1-ylo]butoxy}benzamide hydrochloride] the Blocks [1] was 2/5, the Bradycardia [1] was 1/5 and the Mortality [1] was 0/5. The Blocks [2] was 6/6, the Bradycardia [2] was 6/6 and the Extrasystoles [2] was 6/6. For the same compound, the Fibrillations [2] was 6/6, the Mortality [2] was 6/6 and the Blocks [3] was 6/6. The Bradycardia [3] was 6/6, the Extrasystoles [3] was 6/6 and the Fibrillations [3] was 6/6. The Mortality [3] was 6/6, the “attenuation of the methoxamine pressor response” value [4] was 100% and the “effect on the heart rate during the ECG recording” value (normal ECG in rats) was “did not affect the heart rate”. The “HR—heart rate” value (normal ECG in rats; [6]) was 328.7 ± 9.3, the PQ interval (normal ECG in rats; [6]) was 40.7 ± 2.1 and the QRS complex (normal ECG in rats; [6]) was 47.0 ± 6.3. For the same compound, the “QTc (Bazzett's formula)” value (normal ECG in rats; [6]) was 196.5 ± 8.0, the “HR—heart rate” value (normal ECG in rats; 5 min) was 341.2 ± 11.5 and the PQ interval (normal ECG in rats; 5 min) was 40.0 ± 2.2. The QRS complex (normal ECG in rats; 5 min) was 49.7 ± 7.9, the “QTc (Bazzett's formula)” value (normal ECG in rats; 5 min) was 190.8 ± 4.2 and the “HR—heart rate” value (normal ECG in rats; 10 min) was 333.2 ± 20.9. The PQ interval (normal ECG in rats; 10 min) was 40.7 ± 3.7, the QRS complex (normal ECG in rats; 10 min) was 48.7 ± 7.2 and the “QTc (Bazzett's formula)” value (normal ECG in rats; 10 min) was 196.3 ± 9.5. The “HR—heart rate” value (normal ECG in rats; 15 min) was 336.3 ± 20.9, the PQ interval (normal ECG in rats; 15 min) was 40.7 ± 1.6 and the QRS complex (normal ECG in rats; 15 min) was 48.7 ± 9.2. The “QTc (Bazzett's formula)” value (normal ECG in rats; 15 min) was 192.4 ± 7.5, the Blocks [5, 7] was 6/6 and the Bradycardia [5, 7] was 6/6. The Extrasystoles [5, 7] was 5/6, the Mortality [5, 7] was 3/6 and the Blocks [5, 8] was 4/6. The Bradycardia [5, 8] was 4/6, the Extrasystoles [5, 8] was 5/6 and the Mortality [5, 8] was 0/6. The Blocks [5, 9] was 3/6, the Bradycardia [5, 9] was 3/6 and the Extrasystoles [5, 9] was 4/6. The Mortality [5, 9] was 0/6, the “ED50 value lower than that of carvedilol” value ([5]; adrenaline-induced arrhythmia, prophylactic, carvedilol ref 62) was 9 fold and the ED50 ([5]; prophylactic, iv 15 min before adrenaline 20 μg/kg, confidence limits in brackets (Litchfield and Wilcoxon)) was 0.04 (0.01–0.15) mg/kg. The “Adrenergic Receptors—pKi α1” value (α1-adrenergic receptors) was 7.85 ± 0.01.
In the case of `Clc1cccc(Cl)c1N=C1NCCN1` [Clonidine, clonidine, reference compound], the “Adrenergic Receptors—pKi α2” value (α2-adrenergic receptors) is reported as 8.30 ± 0.01.

Source: article PMC9820316, “Novel Arylpiperazine Derivatives of Salicylamide with α1-Adrenolytic Properties Showed Antiarrhythmic and Hypotensive Properties in Rats” (International Journal of Molecular Sciences, 2022)
